Test results: patent US8193168B2, “Use of a TRPM5 inhibitor to regulate insulin and GLP-1 release” (Redpoint Bio Corporation, priority 2007, dated 2012)

How the values were obtained:
[1] = system: Beta-TC-6 cells; test: Insulin release enhancement in Beta-TC-6 cells (insulin ELISA); format: cell-based, mouse; conditions: for Percent Enhancement of Insulin Secretion (10 μM): compound at 10 μM, compared to glucose-dependent insulin production
Experimental: Beta-TC-6 cells are an insulin-secreting cell line derived from transgenic mice expressing the large T-antigen of simian virus 40 (SV40) in pancreatic beta-cells as described by Poitout et al., Diabetes, 44:306-313 (1995). The cell line was obtained from ATCC cell bank CAT# CRL-11506 and grown in Dulbecco's Modified Eagle's Medium (DMEM) with 15% fetal bovine serum (FBS), 4 mM glutamine, 4.5 mM glucose 1500 mg/L sodium bicarbonate and 1× penn/strep antibiotic mix in a 37° C. incubator with 5% CO2. Cultures were routinely split 1:2 twice a week with the aid of trypsin.
On the day before the assay 0.1×10^6 Beta-TC-6 cells were plated into each well of 96 well plates, and the cells cultured overnight in growth media.
On the next day, growth media was removed from the plate and the monolayers rinsed with phosphate buffered saline (PBS) and pre-incubated 30 mins at 37° C. in Krebs-Ringer Bicarbonate Buffer (KRBB) consisting of 118.5 mM NaCl, 2.54 mM CaCl2, 1.19 mM KH2PO4, 4.74 mM KCl, 25 mM NaHCO3, 1.19 mM MgSO4, 10 mM HEPES buffer and 0.1% bovine serum albumin at pH 7.4. This buffer was removed and replaced with 100 μL of the same buffer containing various insulin release modulators: including various concentrations of glucose up to 12 mM and compounds up to 100 μM. Compounds stock solutions, e.g. 10-20 mM, were diluted in DMSO. Final DMSO concentrations in incubation buffer were 0.5% or less. Vehicle controls were included. Static incubations were then performed for 2 h at 37° C. The entire incubation volume was collected after the 2 h incubation for insulin assay.
ELISA Protocol for insulin determinations. The following protocol was used for doing ELISA using the Rat/Mouse Insulin ELISA Kit from Linco Research, Inc., CAT#EZRMI-13K and Amplex® Red Hydrogen Peroxide/Peroxidase Assay Kit, CAT#A22188, and Amplex® Red reagent (10-acetyl-3,7-dihydroxyphenoxazine) CAT#A12222.
All reagents were Pre-warmed to room temperature before setting up experiment.
1. Dilute the 10× washing buffer into 1× washing buffer. 50 mL+450 mL de-ionized water. Do 1:10 dilution to the cell culture supernatant (Beta-TC-6 cell incubation).
2. Use one column (8 wells) wells for standard samples and QC1 and QC2, typically 0 and 5 ng/mL of insulin. On some plates full standard curves for insulin obtained as shown below.
3. Cover the unused wells well. Wash each well 3 times with 300 μL of 1× washing buffer each time. (2 minutes each washing step on the shaker.) Decant Wash Buffer and remove the residual amount from all wells by inverting the plate and tapping it smartly onto absorbent towels several times.
4. Add 20 μL Assay Buffer into that blank well and 10 μL into those wells for standards and samples.
5. Add 10 μL rat insulin standards and samples to the appropriate wells.
6. Add 80 μL Detection Antibody to all wells. Cover the plate and incubate at room temperature for 2 hours.
7. Tear off the plate cover and decant solutions from the plate. Tap to remove residual solutions in well.
8. Wash well 3 times with diluted wash buffer 300 μL per well per wash (2 minutes each washing step on the shaker). Tap to remove residual solutions as before.
9. Add 100 μL Enzyme Solution to each well. Cover plate with sealer and incubate with moderate shaking at room temperature for 30 min on the microtiter plate shaker.
10. Remove sealer, decant solutions from the plate and tap plate to remove the residual fluid.
11. Wash wells 6 times with diluted Wash Buffer, 300 μL per well per wash. Decant and tap after each wash to remove residual buffer.
12. Prepare 5 mL working solution of […] Amolex Red reagent containing 2.0 mM H2O2. 4.45 mL of 1× Reaction buffer+50 μL 10 mM Amplex Reagent+500 μL 20 mM H2O2.
13. Add 100 μL of the Amplex Red reagent/H2O2 to each well.
14. Incubate the reactions. Incubate at room temperature for 30 minutes, protected from light (using foil to wrap the plate). […]

[2] = target: T1, TRPM5 (Homo sapiens, UniProt Q9NZQ8); test: TRPM5 inhibition (FLIPR Membrane Potential Assay); format: cell-based
T1 sequence (Q9NZQ8 1-1165): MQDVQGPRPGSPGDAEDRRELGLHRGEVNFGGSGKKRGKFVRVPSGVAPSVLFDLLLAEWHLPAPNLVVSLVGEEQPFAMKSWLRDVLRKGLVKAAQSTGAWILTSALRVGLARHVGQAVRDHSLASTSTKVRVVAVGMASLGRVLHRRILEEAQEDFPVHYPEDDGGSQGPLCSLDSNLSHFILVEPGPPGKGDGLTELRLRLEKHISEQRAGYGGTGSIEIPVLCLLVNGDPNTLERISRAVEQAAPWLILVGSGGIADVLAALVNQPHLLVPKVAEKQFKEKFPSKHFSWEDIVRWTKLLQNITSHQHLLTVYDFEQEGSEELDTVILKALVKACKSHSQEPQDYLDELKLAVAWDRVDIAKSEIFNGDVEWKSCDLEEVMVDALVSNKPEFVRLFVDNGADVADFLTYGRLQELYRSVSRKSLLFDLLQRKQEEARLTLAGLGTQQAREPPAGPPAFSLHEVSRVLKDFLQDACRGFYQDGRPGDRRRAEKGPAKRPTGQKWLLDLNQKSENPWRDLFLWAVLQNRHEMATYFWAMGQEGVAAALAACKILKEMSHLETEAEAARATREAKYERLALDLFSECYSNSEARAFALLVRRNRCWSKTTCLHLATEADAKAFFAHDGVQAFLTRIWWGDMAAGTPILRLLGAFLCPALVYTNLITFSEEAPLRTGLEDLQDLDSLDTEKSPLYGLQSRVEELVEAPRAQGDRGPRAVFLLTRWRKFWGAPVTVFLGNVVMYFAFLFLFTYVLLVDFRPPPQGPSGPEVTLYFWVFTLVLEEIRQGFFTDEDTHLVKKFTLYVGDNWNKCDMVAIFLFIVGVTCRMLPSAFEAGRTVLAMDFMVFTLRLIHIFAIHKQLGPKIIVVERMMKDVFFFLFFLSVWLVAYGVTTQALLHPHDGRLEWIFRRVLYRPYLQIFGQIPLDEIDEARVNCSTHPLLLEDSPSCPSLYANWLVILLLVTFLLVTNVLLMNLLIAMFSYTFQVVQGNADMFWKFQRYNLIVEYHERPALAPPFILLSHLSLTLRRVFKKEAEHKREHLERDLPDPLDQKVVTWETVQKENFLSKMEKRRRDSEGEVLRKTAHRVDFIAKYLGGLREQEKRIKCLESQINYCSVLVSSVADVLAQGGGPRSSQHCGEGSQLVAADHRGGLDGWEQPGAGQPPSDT

Row | IC50 [2] | Structure (SMILES) | insulin secretion ([1]; FIG. 5) | Percent Enhancement of Insulin Secretion (10 μM) [1] | glucose dependence of stimulation of insulin release ([1]; varying glucose concentration, FIG. 3 and FIG. 7)
1 | 600 nM | COc1ccc(/C=N/NC(=O)Cc2cccc3ccccc23)cc1OC [Example 3, (E)-N′-(3,4-Dimethoxybenzylidene)-2-(naphthalene-1-yl)acetohydrazide] | increases insulin secretion | 250% | increases insulin secretion in a glucose-dependent manner
2 | 500 nM | COc1ccc(/C=N/NC(=O)CCn2c3ccccc3c3ccccc32)cc1OC [Example 23, 3-Carbazol-9-ylpropionic acid (3,4-dimethoxybenzylidene)hydrazide] |  | 208% | 
